The record followed here is patent EP0082266A1, “Substituted 1,5-diaminopentanes, their preparation and pharmaceutical compositions containing them” (BASF Aktiengesellschaft, priority 1981, dated 1983).

Structures can show the parent of a compound that is named as a salt.

Data set [1] deals with Aconitinarrhythmie der Ratte. Briefly: Antiarrhythmic activity, aconitine-induced arrhythmia in the anaesthetised rat (oral dosing, aconitine i.v. infusion 60 min later). The class given is in vivo, Ratten (Stamm: Sprague Dawley). As for the experimental part: Zur Bestimmung der antiarrhythmischen Wirksamkeit werden die Substanzen Ratten (Stamm: Sprague Dawley, Gewicht 200 bis 250 g) oral appliziert. 45 min später werden die Tiere mit Thiobutabarbital-Natrium (100,0 mg/kg i.p.) narkotisiert. Als arrhythmogene Substanz dient Aconitin, das 60 min nach Substanzapplikation i.v. infundiert wird (Dosierungsgeschwindigkeit: 0,005 mg/kg x min). Bei nicht behandelten Tieren (N = 52) treten nach 2,74 + 0,07 min im EKG Arrhythmien auf, deren Eintritt durch Antiarrhythmika dosisabhängig verzögert werden kann.
Aus den linearen Beziehungen zwischen log Dosis (mg/kg) der Prüfsubstanzen und der relativen Verlängerung der Aconitin--Infusionsdauer (Δ%) wird die Dosis bestimmt, welche die Infusionsdauer um 50 % verlängert (ED 50 %).
(§1) Zur weiteren Charakterisierung der Substanzen wird aus der in den Experimenten verwendeten dezimalgeometrischen Dosenfolge (Faktor [formula] ) die antiarrhythmische Wirkung der maximal tolerierten Dosis bestimmt.

The next data set relates to Ratte. As to the kind of experiment: Acute toxicity / tolerability in the rat after oral dosing (toxic symptoms: changes of baseline ECG, cyanosis, convulsions). Format: in vivo. As to conditions: per os, dose after which the first toxic symptoms are observed.
Description: as §1
(§2) Ferner wird die Dosis ermittelt, bei welcher toxische Symptome (Veränderungen des Ausgangs-EKG, Cyanose, Krämpfe) auftreten.

Assay in data set [2]: as above
The class given is in vivo. The conditions noted are these: in vivo, po.
Description: as §1, §2

For the molecule `CC(C)C(CCCN(C)CCc1ccccc1)(CN(C)C)c1ccccc1` (stereo not drawn) [Beispiel 37, 1-Dimethylamino-2-isopropyl-2-phenyl-5-(phenethyl)--methylamino-pentan-dihydrochlorid], in data set [1] (Rattus norvegicus, po, 1 h, read-out: Wirksame Dosis ED 50 %), the ED50 stood at 7.99 mg/kg. Further, the “Maximale Wirkung Δ % (Verlängerung der Aconitinfusionsdauer)” value in data set [1] (rat, per os, effect of the maximal tolerated dose) amounted to 423%. Moreover, the “R.W. = Relative Wirksamkeit, bezogen auf Chinidin = 1,00” value in data set [1] (rat, per os, relative potency from ED 50 %, Chinidin = 1,00) is 5,44. The “Toxizität Dosis” value in the data set on Ratte was 100 mg/kg. The MTD in data set [2] (per os, highest tolerated dose, at which the maximal effect was read, read-out: Maximale Wirkung Dosis (maximal tolerierte Dosis)) was determined as 46.4 mg/kg. The selectivity ratio in data set [2] (read-out: Q = Toxische Dosis / ED 50 %) is 13.
